These results are taken from patent US12612380B2, “Non-lysosomal glucosylceramidase inhibitors and uses thereof” (ALECTOS THERAPEUTICS INC., priority 2019, dated 2026).

Structures are written as SMILES.

Usually IC50 stands for the concentration at which inhibition is half-maximal.

For the first assay, the target named is T1, GBA2 (Homo sapiens, UniProt Q9HCG7).
T1 sequence (Q9HCG7 1-927): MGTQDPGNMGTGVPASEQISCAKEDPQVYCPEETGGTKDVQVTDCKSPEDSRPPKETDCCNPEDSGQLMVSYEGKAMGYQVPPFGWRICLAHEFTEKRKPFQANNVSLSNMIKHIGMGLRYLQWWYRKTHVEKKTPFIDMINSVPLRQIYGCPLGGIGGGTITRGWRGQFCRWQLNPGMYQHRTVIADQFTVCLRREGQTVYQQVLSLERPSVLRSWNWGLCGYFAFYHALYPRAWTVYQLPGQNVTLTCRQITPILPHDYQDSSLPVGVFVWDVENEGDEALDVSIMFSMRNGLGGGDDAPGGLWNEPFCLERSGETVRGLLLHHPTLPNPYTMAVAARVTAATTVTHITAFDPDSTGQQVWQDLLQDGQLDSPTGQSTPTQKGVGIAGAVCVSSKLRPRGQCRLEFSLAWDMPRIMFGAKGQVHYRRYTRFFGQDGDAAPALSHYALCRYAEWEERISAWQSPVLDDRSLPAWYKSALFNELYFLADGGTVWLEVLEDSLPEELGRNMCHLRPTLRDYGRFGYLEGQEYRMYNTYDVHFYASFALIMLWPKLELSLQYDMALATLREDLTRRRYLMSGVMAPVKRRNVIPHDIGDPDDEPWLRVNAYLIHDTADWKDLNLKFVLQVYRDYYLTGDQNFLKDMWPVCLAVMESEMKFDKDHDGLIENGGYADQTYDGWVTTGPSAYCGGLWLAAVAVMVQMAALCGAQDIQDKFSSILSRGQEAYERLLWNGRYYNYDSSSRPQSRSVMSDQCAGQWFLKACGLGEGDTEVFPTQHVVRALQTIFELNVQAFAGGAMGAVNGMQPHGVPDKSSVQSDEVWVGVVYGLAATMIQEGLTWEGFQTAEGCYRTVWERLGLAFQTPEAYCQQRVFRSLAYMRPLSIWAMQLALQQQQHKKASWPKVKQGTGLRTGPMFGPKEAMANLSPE
Kind of assay: Determination of IC50 values for inhibition of GBA2 in cell lysate. The class given is biochemical. Further details: host or cells: HEK293T (lentiviral transduction, puromycin selection); used as cellular homogenate.
Settings: not given
The procedure, abridged:
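Homogenate of HEK293T cells stably overexpressing human GBA2 (0.083 mg/mL final), pretreated with 20 μM GCase inhibitor, preincubated 5 min at 37 °C with compound, then reacted 20 min with 250 μM 4-methylumbelliferyl-β-D-glucopyranoside at pH 5.5 (citrate-phosphate, 1% C10E6). Fluorescence read at 365/450 nm after alkaline stop; IC50 from log-inhibitor curve fit.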
Turning to `CCCCOc1cc(F)c(CCN2C[C@H](O)[C@@H](O)[C@H](O)[C@@H]2CF)c(F)c1` [Example 160, (2R,3R,4R,5S)-1-(4-butoxy-2,6-difluorophenethyl)-2-(fluoromethyl)piperidine-3,4,5-triol], the half-maximal inhibitory concentration (IC50) lay within 0.1 to 1 µM.

Regarding `CCCCOc1cc(F)c(CCN2C[C@H](O)[C@@H](O)[C@H](O)[C@@H]2C)c(F)c1` [Example 158, (2S,3R,4R,5S)-1-(4-butoxy-2,6-difluorophenethyl)-2-methylpiperidine-3,4,5-triol], the IC50 is 0.1 to 1 µM.

Take `C[C@@H]1[C@@H](O)[C@H](O)[C@@H](O)CN1CCc1cccs1` [Example 74, (2R,3R,4R,5S)-2-methyl-1-(2-(thiophen-2-yl)ethyl)piperidine-3,4,5-triol]: the IC50 lay in the range of 0.1 to 1 µM.

For `C[C@H]1[C@@H](O)[C@H](O)[C@@H](O)CN1CCc1ccccc1F` [Example 157, (2S,3R,4R,5S)-1-(2-fluorophenethyl)-2-methylpiperidine-3,4,5-triol], the IC50 was in the range of 1 to 25 µM.

As to `C[C@@H]1[C@@H](O)[C@H](O)[C@@H](O)CN1CCc1ccc2c(c1)OC(F)(F)O2` [Example 72, (2R,3R,4R,5S)-1-(2-(2,2-difluorobenzo[d][1,3]dioxol-5-yl)ethyl)-2-methylpiperidine-3,4,5-triol], the IC50 was less than 0.1 µM.

Take `COc1ccc(CCN2C[C@H](O)[C@@H](O)[C@H](O)[C@H]2C)c(F)c1` [Example 44, (2R,3R,4R,5S)-1-(2-fluoro-4-methoxyphenethyl)-2-methylpiperidine-3,4,5-triol]: the IC50 was in the range of 0.1 to 1 µM.

The assay is the same for the next values; noted with them: cellular homogenate of HEK293T cells overexpressing human GBA2, 250 μM 4-methylumbelliferone-β-D glucopyranoside, pH 5.5, 37° C., GCase inhibitor present; read-out: GBA2 IC50.
In the case of `C[C@@H]1[C@@H](O)[C@H](O)[C@@H](O)CN1CC1CCN(c2cccnc2)CC1` [Example 90, (2R,3R,4R,5S)-2-methyl-1-((1-(pyridin-3-yl)piperidin-4-yl)methyl)piperidine-3,4,5-triol], the 50% inhibitory concentration (IC50) lay in the range of 1 to 25 µM.

Take `C[C@@H]1[C@@H](O)[C@H](O)[C@@H](O)CN1CCc1ccc(OC2CCOC2)cc1` (stereo partly drawn) [Example 61, (2R,3R,4R,5S)-2-methyl-1-(4-((tetrahydrofuran-3-yl)oxy)phenethyl)piperidine-3,4,5-triol]: the concentration for half-maximal inhibition (IC50) is less than 0.1 µM.

For the compound `C[C@@H]1[C@@H](O)[C@H](O)[C@@H](O)CN1CC1CCN(C(=O)CC(C)(C)C)CC1` [Example 96, 3,3-dimethyl-1-(4-(((2R,3R,4R,5S)-3,4,5-trihydroxy-2-methylpiperidin-1-yl)methyl)piperidin-1-yl)butan-1-one], the IC50 is 0.1 to 1 µM.

`C[C@@H]1[C@@H](O)[C@H](O)[C@@H](O)CN1C[C@@H]1CCN(c2cncnc2C(F)(F)F)C1` [Example 134, (2R,3R,4R,5S)-2-methyl-1-(((S)-1-(4-(trifluoromethyl)pyrimidin-5-yl)pyrrolidin-3-yl)methyl)piperidine-3,4,5-triol]: the IC50 is less than 0.1 µM.

Consider `C[C@@H]1[C@@H](O)[C@H](O)[C@@H](O)CN1C[C@H]1CCN(c2ccsc2)C1` [Example 128, (2R,3R,4R,5S)-2-methyl-1-(((R)-1-(thiophen-3-yl)pyrrolidin-3-yl)methyl)piperidine-3,4,5-triol], for which the 50% inhibitory concentration (IC50) was less than 0.1 µM.

Regarding `C[C@@H]1[C@@H](O)[C@H](O)[C@@H](O)CN1CC1CCN(C(=O)[C@H]2CC[C@@H](C(C)(C)C)CC2)CC1` [Example 102, ((1s,4S)-4-(tert-butyl)cyclohexyl)(4-(((2R,3R,4R,5S)-3,4,5-trihydroxy-2-methylpiperidin-1-yl)methyl)piperidin-1-yl)methanone], the half-maximal inhibitory concentration (IC50) is less than 0.1 µM.

`COC1CCC(C(=O)N2CCC(CN3C[C@H](O)[C@@H](O)[C@H](O)[C@H]3C)CC2)CC1` (stereo partly drawn) [Example 104, (4-methoxycyclohexyl)(4-(((2R,3R,4R,5S)-3,4,5-trihydroxy-2-methylpiperidin-1-yl)methyl)piperidin-1-yl)methanone]: the IC50 lay within 1 to 25 µM.

`C[C@@H]1[C@@H](O)[C@H](O)[C@@H](O)CN1CCc1c(F)cc(-c2ccccc2)cc1F` [Example 69, (2R,3R,4R,5S)-1-(2-(3,5-difluoro-[1,1′-biphenyl]-4-yl)ethyl)-2-methylpiperidine-3,4,5-triol]: the concentration for half-maximal inhibition (IC50) is less than 0.1 µM.

Take `C[C@@H]1[C@@H](O)[C@H](O)[C@@H](O)CN1CC1CCC(c2ccccc2)CC1` (stereo partly drawn) [Example 22, (2R,3R,4R,5S)-2-methyl-1-((4-phenylcyclohexyl)methyl)piperidine-3,4,5-triol]: the IC50 was less than 0.1 µM.

As to `C[C@@H]1[C@@H](O)[C@H](O)[C@@H](O)CN1CC1(C)CCN(c2ccccc2)CC1` [Example 87, (2R,3R,4R,5S)-2-methyl-1-((4-methyl-1-phenylpiperidin-4-yl)methyl)piperidine-3,4,5-triol], the IC50 fell in the range of 1 to 25 µM.

With `C[C@@H]1[C@@H](O)[C@H](O)[C@@H](O)CN1C[C@H]1CCC[C@H](C(F)(F)F)C1` [Example 15, (2R,3R,4R,5S)-2-methyl-1-(((trans)-3-(trifluoromethyl)cyclohexyl)methyl)piperidine-3,4,5-triol], the IC50 was less than 0.1 µM.

Turning to `C[C@@H]1[C@@H](O)[C@H](O)[C@@H](O)CN1C[C@H]1CCN(c2cc(C(F)(F)F)ccn2)C1` [Example 121, (2R,3R,4R,5S)-2-methyl-1-(((R)-1-(4-(trifluoromethyl)pyridin-2-yl)pyrrolidin-3-yl)methyl)piperidine-3,4,5-triol], the IC50 was less than 0.1 µM.

As to `C[C@@H]1[C@@H](O)[C@H](O)[C@@H](O)CN1CCCc1ccc(F)cc1` [Example 79, (2R,3R,4R,5S)-1-(3-(4-fluorophenyl)propyl)-2-methylpiperidine-3,4,5-triol], the IC50 is less than 0.1 µM.

As for `C[C@@H]1[C@@H](O)[C@H](O)[C@@H](O)CN1CC1CCN(C(=O)C2CC2)CC1` [Example 98, cyclopropyl(4-(((2R,3R,4R,5S)-3,4,5-trihydroxy-2-methylpiperidin-1-yl)methyl)piperidin-1-yl)methanone], the IC50 fell in the range of 1 to 25 µM.

Regarding `C[C@@H]1[C@@H](O)[C@H](O)[C@@H](O)CN1CCC1CCCCC1` [Example 29, (2R,3R,4R,5S)-1-(2-cyclohexylethyl)-2-methylpiperidine-3,4,5-triol], the half-inhibitory concentration (IC50) fell in the range of 0.1 to 1 µM.

Regarding `C[C@@H]1[C@@H](O)[C@H](O)[C@@H](O)CN1CCCc1ccccc1` [Example 77, (2R,3R,4R,5S)-2-methyl-1-(3-phenylpropyl)piperidine-3,4,5-triol], the IC50 is less than 0.1 µM.

With `C[C@@H]1[C@@H](O)[C@H](O)[C@@H](O)CN1C[C@H]1CC[C@H](C(C)(C)F)CC1` [Example 14, (2R,3R,4R,5S)-1-(((1r,4R)-4-(2-fluoropropan-2-yl)cyclohexyl)methyl)-2-methylpiperidine-3,4,5-triol], the IC50 was less than 0.1 µM.

Turning to `C[C@@H]1[C@@H](O)[C@H](O)[C@@H](O)CN1CC1CCN(C(=O)C2CCCC2)CC1` [Example 100, cyclopentyl(4-(((2R,3R,4R,5S)-3,4,5-trihydroxy-2-methylpiperidin-1-yl)methyl)piperidin-1-yl)methanone], the IC50 lay within 0.1 to 1 µM.

Turning to `CO[C@H]1CC[C@@H](CN2C[C@H](O)[C@@H](O)[C@H](O)[C@H]2C)CC1` [Example 17, (2R,3R,4R,5S)-1-(((1s,4S)-4-methoxycyclohexyl)methyl)-2-methylpiperidine-3,4,5-triol], the concentration for half-maximal inhibition (IC50) fell in the range of 1 to 25 µM.

For `CO[C@H]1CC[C@H](CN2C[C@H](O)[C@@H](O)[C@H](O)[C@H]2C)CC1` [Example 18, (2R,3R,4R,5S)-1-(((1r,4R)-4-methoxycyclohexyl)methyl)-2-methylpiperidine-3,4,5-triol], the IC50 was in the range of 1 to 25 µM.
